Among the data in patent US9434725B2, “5-azaindazole compounds and methods of use” (priority 2012, dated 2016) are Ki, EC50 and IC50 values, retold here.

One experiment concerns the target PIM2 (Homo sapiens (Human), UniProt Q9P1W9). Briefly: Pim kinase binding activity, Caliper LC3000 microfluidic peptide phosphorylation assay, PIM2. Type of experiment: biochemical. As to conditions: 10 μM ATP, 90 min, room temperature; read-out: PIM2 LC3K (KI). The method in brief: (§1)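 Read-out is microfluidic electrophoretic separation of phosphorylated from unphosphorylated fluorescent Pim peptide, with Ki calculated from conversion. Reactions ran 90 min at room temperature in HEPES pH 7.2 containing MgCl2, Tween 20 and DTT, ended by EDTA-containing buffer.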

Experiment [1] has as its system MM1.S (multiple myeloma) cells. Kind of experiment: In vitro cell proliferation potency assay (Cell Titer Glo), MM1.S cells. Type of experiment: cell-based. As to conditions: Homo sapiens, MM1.S cells, 72 hours, read-out: Prolif MM1S ATP (EC50). How it is done: (§2) BaF3 parental line was obtained from the DSMZ repository. BaF3 lines transfected with PIM1 or PIM2 were generated. Mouse IL-3 was purchased from R&D Systems. G418 was purchased from Clontech. Media for BaF3 parental line contained RPMI, 10% FBS, 2 mM L-Glutamine, 2 ng/mL mIL-3. Media for BaF3 PIM1 & 2 lines contained RPMI, 10% FBS, 2 mM L-Glutamine, […]. Media for MM1.S (multiple myeloma cells) line contained RPMI, 10% FBS, 2 mM L-Glutamine.
(§3) BaF3, a murine interleukin-3 dependent pro-B cell line, parental cells, BaF3 PIM1 cells, BaF3 PIM2 cells, and MM1.S (multiple myeloma) cells were seeded at 2 k/well, 5 k/well, 5 k/well, and 10 k/well respectively, in a 384-well plate, at 45 μL/well. Test compound was added at 5 μL/well. BaF3 cells (parental and transfected) were incubated overnight, while MM1.S cells were incubated for 72 hours at 37° C., 5% CO2. CELL TITER GLO® Reagent (Promega) was added at 50 μL/well, the plates were incubated for 30 minutes, and their luminescence read on an HT Analyst. IC50/EC50 values for the test compound were calculated.
On the technique in general: Cellular ATP, detected with luciferase, serves as a proxy for viable cell number.

Another experiment deals with PIM3 (Homo sapiens (Human), UniProt Q86V86). Briefly: Pim kinase binding activity, Caliper LC3000 microfluidic peptide phosphorylation assay, PIM3. Type of experiment: biochemical. As to conditions: 10 μM ATP, 90 min, room temperature; read-out: PIM3 LC3K (KI). The method in brief:
as §1

For another experiment, the target named is PIM1 (Homo sapiens (Human), UniProt P11309). Briefly: biochemical. The experiment is classed as biochemical. As to conditions: 10 μM ATP, 90 min, room temperature; read-out: PIM1 LC3K (KI). In a few lines:
as §1

The next experiment deals with BaF3 PIM1 cells. Briefly: In vitro cell proliferation potency assay (Cell Titer Glo), BaF3 PIM1 cells. Type of experiment: cell-based, murine. As to conditions: Mus musculus, BaF3, BaF3 cells transfected with PIM1, incubated overnight; read-out: Prolif BaF3_PIM 1 (IC50). Here is the method:
as §2, §3

pEC50, pIC50, pKi: −log10 of the molar value. Like-named read-outs stand apart in the source and are kept apart here.

Chain of PIM1 (P11309 whole entry): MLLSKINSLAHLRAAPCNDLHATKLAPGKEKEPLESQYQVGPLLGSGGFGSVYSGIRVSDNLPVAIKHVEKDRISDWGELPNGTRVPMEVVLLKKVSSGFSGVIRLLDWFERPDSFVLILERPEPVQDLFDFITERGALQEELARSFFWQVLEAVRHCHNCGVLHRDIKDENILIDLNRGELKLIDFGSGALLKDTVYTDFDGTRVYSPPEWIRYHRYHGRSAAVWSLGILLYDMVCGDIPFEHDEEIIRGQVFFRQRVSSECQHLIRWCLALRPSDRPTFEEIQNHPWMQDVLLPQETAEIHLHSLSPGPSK
Chain of PIM2 (Q9P1W9 whole entry): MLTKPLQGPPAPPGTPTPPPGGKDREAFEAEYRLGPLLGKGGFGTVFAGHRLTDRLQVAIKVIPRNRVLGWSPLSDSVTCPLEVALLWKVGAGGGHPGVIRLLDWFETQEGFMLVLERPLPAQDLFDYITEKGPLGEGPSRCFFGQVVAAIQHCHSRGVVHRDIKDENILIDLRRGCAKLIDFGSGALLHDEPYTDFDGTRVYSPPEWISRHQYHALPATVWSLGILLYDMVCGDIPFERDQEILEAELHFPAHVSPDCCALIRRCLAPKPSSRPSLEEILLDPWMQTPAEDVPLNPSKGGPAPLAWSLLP

`CCc1cncc(-c2cc3c(cn2)cnn3-c2cccc(N3CCNC[C@@H](O)C3)n2)c1` (single isomer, unassigned) [Compound 122]: the figures for the negative logarithm of the Ki (pKi) at PIM2 and on PIM3 were 8.34 and 10.08, respectively. Further, the pEC50 in experiment [1] (MM1.S, 72 h) is 5.57.
Consider `Cc1cncc(-c2cc3c(cn2)cnn3-c2cccc(N3CC(N)CCC3C)n2)n1` (single isomer, unassigned) [Compound 182, 6-methyl-1-[6-[6-(6-methylpyrazin-2-yl)pyrazolo[4,3-c]pyridin-1-yl]-2-pyridyl]piperidin-3-amine], for which, in experiment [1] (MM1.S, 72 h), the negative logarithm of the EC50 (pEC50) is 5.72.
For the molecule `Cc1cncc(-c2cc3c(cn2)cnn3-c2cccc(N3CCCNCC3)n2)n1` [Compound 138, 1-[6-(1 4-diazepan-1-yl)-2-pyridyl]-6-(6-methylpyrazin-2-yl)pyrazolo[4,3-c]pyridine], on PIM2, the pKi was 9.36. Moreover, the pEC50 in experiment [1] (MM1.S, 72 h) was 5.34.
Regarding `Cc1cncc(-c2cc3c(cn2)cnn3-c2cccc(N3CCCNCC3)n2)c1` [Compound 141, 1-(6-(1,4-diazepan-1-yl)pyridin-2-yl)-6-(5-methylpyridin-3-yl)-1H-pyrazolo[4,3-c]pyridine], the negative-log Ki (pKi) on PIM2 was 8.47; at PIM3 it was 10.11. In experiment [1] (MM1.S, 72 h), the pEC50 was 5.30.
Turning to `c1cc(N2CCNCC2)nc(-n2ncc3cnc(-c4cnccn4)cc32)c1` [Compound 144, 1-(6-piperazin-1-yl-2-pyridyl)-6-pyrazin-2-yl-pyrazolo[4,3-c]pyridine], the pKi was 8.94 on PIM2 and 10.30 at PIM3. The pEC50 in experiment [1] (MM1.S, 72 h) is 5.59.
Turning to `CCc1cncc(-c2cc3c(cn2)cnn3-c2cccc(N3CCCNCC3)n2)n1` [Compound 150, 1-[6-(1 4-diazepan-1-yl)-2-pyridyl]-6-(6-ethylpyrazin-2-yl)pyrazolo[4 3-c]pyridine], the pKi was 9.48 on PIM2 and 10.72 at PIM3. Further, the negative logarithm of the EC50 (pEC50) in experiment [1] was 5.72.
As for `CCn1cncc(-c2cc3c(cn2)cnn3-c2cccc(N3CCNCC3)n2)c1=O` [Compound 151, 3-ethyl-5-[1-(6-piperazin-1-yl-2-pyridyl)pyrazolo[4,3-c]pyridin-6-yl]pyrimidin-4-one], the pKi at PIM2 was 8.48; at PIM3 it was 10.09. The negative logarithm of the EC50 (pEC50) in experiment [1] (MM1.S, 72 h) is 5.07.
As for `FCCn1cc(-c2cc3c(cn2)cnn3-c2cccc(N3CCCNCC3)n2)cn1` [Compound 153, 1-(6-(1,4-Diazepan-1-yl)pyridin-2-yl)-6-(1-(2-fluoroethyl)-1H-pyrazol-4-yl)-1H-pyrazolo[4,3-c]pyridine], the figures for the pKi at PIM2 and on PIM3 were 8.86 and 10.07, respectively. The negative logarithm of the EC50 (pEC50) in experiment [1] (MM1.S, 72 h) was 5.60.
Turning to `Cc1cncc(-c2cc3c(cn2)cnn3-c2cccc(NC3CCNCC3)n2)n1` [Compound 190, 6-[6-(6-methylpyrazin-2-yl)pyrazolo[4,3-c]pyridin-1-yl]-N-(4-piperidyl)pyridin-2-amine], the values for the pKi at PIM2, at PIM1 and on PIM3 were 8.89, 10.22 and 10.64, respectively. In the experiment on BaF3 PIM1 cells, the pIC50 is 6.63.
For `Cc1cncc(-c2cc3c(cn2)cnn3-c2cccc(N3C[C@@H](N)C[C@H](F)C3)n2)n1` [Compound 192, (3S,5S)-5-fluoro-1-[6-[6-(6-methylpyrazin-2-yl)pyrazolo[4,3-c]pyridin-1-yl]-2-pyridyl]piperidin-3-amine], the pKi at PIM2 is 8.47; on PIM1, 9.37; at PIM3 it was 9.68. Moreover, the pIC50 with BaF3 PIM1 cells was 5.77.
On to `Cc1cncc(-c2cc3c(cn2)cnn3-c2cccc(N3CCC(N)CC3)n2)n1` [Compound 194, 1-[6-[6-(6-methylpyrazin-2-yl)pyrazolo[4,3-c]pyridin-1-yl]-2-pyridyl]piperidin-4-amine], for which the negative-log Ki (pKi) at PIM2 is 8.51; on PIM1, 9.61; at PIM3, 9.90. Besides, the pIC50 in the experiment with BaF3 PIM1 cells was 5.82.
`Cc1cncc(-c2cc3c(cn2)cnn3-c2ccc(C3CC3)c(N3CCCNCC3)n2)n1` [Compound 197, 1-(5-cyclopropyl-6-(1,4-diazepan-1-yl)pyridin-2-yl)-6-(6-methylpyrazin-2-yl)-1H-pyrazolo[4,3-c]pyridine]: the negative logarithm of the Ki (pKi) at PIM2 is 8.91; at PIM1, 10.26; on PIM3 it was 10.34. Also, the negative-log IC50 (pIC50) in the experiment on BaF3 PIM1 cells was 5.66.
Taken in the same sequence, the figures for `Cc1cncc(-c2cc3c(cn2)cnn3-c2cccc(N3C[C@@H](N)C[C@@H](F)C3)n2)n1` [Compound 198, (3S,5R)-5-fluoro-1-[6-[6-(6-methylpyrazin-2-yl)pyrazolo[4,3-c]pyridin-1-yl]-2-pyridyl]piperidin-3-amine] were 8.59, 9.93, 10.05 and 5.96.
For `COc1ccc(-n2ncc3cnc(-c4cncc(C)n4)cc32)nc1N1CCNCC(O)C1` (stereo not drawn) [Compound 207, 1-(3-methoxy-6-(6-(6-methylpyrazin-2-yl)-1H-pyrazolo[4,3-c]pyridin-1-yl)pyridin-2-yl)-1,4-diazepan-6-ol], the negative-log Ki (pKi) on PIM2 was 8.44; at PIM1 it was 9.74; at PIM3, 10.03. The negative logarithm of the IC50 (pIC50) with BaF3 PIM1 cells was 5.82.
For `Cc1nc(-c2cc3c(cn2)cnn3-c2cccc(N3CCC[C@H](N)C3)n2)cnc1N` [Compound 209, (S)-5-(1-(6-(3-aminopiperidin-1-yl)pyridin-2-yl)-1H-pyrazolo[4,3-c]pyridin-6-yl)-3-methylpyrazin-2-amine] the same measures were 9.24, 10.35, 10.96 and 6.17.
For `Cc1cncc(-c2cc3c(cn2)cnn3-c2cccc(N3CCC4(CNC4)C3)n2)n1` [Compound 214, 1-[6-(2 6-diazaspiro[3.4]octan-6-yl)-2-pyridyl]-6-(6-methylpyrazin-2-yl)pyrazolo[4,3-c]pyridine] the same measures were 8.58, 9.41, 9.70 and 6.00.
As for `Cc1cncc(-c2cc3c(cn2)cnn3-c2cccc(N3CCC4(CCCN4)CC3)n2)n1` [Compound 216, 8-[6-[6-(6-methylpyrazin-2-yl)pyrazolo[4,3-c]pyridin-1-yl]-2-pyridyl]-1 8-diazaspiro[4.5]decane], the values for the negative-log Ki (pKi) at PIM2, at PIM1 and at PIM3 were 8.53, 9.65 and 10.03, respectively. In the experiment on BaF3 PIM1 cells, the negative logarithm of the IC50 (pIC50) is 6.15.
Taken in the same sequence, the figures for `Cc1cncc(-c2cc3c(cn2)cnn3-c2cnc(C)c(N3CCC[C@H](N)C3)n2)n1` [Compound 228, (3S)-1-[3-methyl-6-[6-(6-methylpyrazin-2-yl)pyrazolo[4,3-c]pyridin-1-yl]pyrazin-2-yl]piperidin-3-amine] were 9.14, 10.13, 10.33 and 6.11.
Regarding `OCC(O)c1cncc(-c2cc3c(cn2)cnn3-c2cccc(N3CCNCC3)n2)n1` (stereo not drawn) [Compound 277, 1-(6-(1-(6-(piperazin-1-yl)pyridin-2-yl)-1H-pyrazolo[4,3-c]pyridin-6-yl)pyrazin-2-yl)ethane-1,2-diol], the pKi at PIM2 was 8.33. For the same molecule, the pEC50 in experiment [1] (MM1.S, 72 h) was 5.38.
For the molecule `NCCOc1cncc(-c2cc3c(cn2)cnn3-c2cccc(N3CCNCC3)n2)n1` [Compound 286, 2-((6-(1-(6-(piperazin-1-yl)pyridin-2-yl)-1H-pyrazolo[4,3-c]pyridin-6-yl)pyrazin-2-yl)oxy)ethanamine], the pEC50 in experiment [1] (MM1.S, 72 h) is 5.09. For the same molecule, at PIM3, the negative-log Ki (pKi) is 10.04.
For the molecule `Cc1cncc(-c2cc3c(cn2)cnn3-c2cccc(N3CCC[C@@H](O)C3)n2)n1` [Compound 298, (R)-1-(6-(6-(6-methylpyrazin-2-yl)-1H-pyrazolo[4,3-c]pyridin-1-yl)pyridin-2-yl)piperidin-3-ol], the negative-log Ki (pKi) is 8.57 on PIM2, 9.07 at PIM1 and 9.40 at PIM3. Also, the negative-log IC50 (pIC50) in the experiment with BaF3 PIM1 cells was 5.80.
Turning to `Cc1cncc(-c2cc3c(cn2)cnn3-c2cccc(N3CCC[C@H](O)C3)n2)n1` [Compound 299, (S)-1-(6-(6-(6-methylpyrazin-2-yl)-1H-pyrazolo[4,3-c]pyridin-1-yl)pyridin-2-yl)piperidin-3-ol], the negative logarithm of the Ki (pKi) was 8.38 at PIM2, 9.38 at PIM1 and 9.61 at PIM3. Further, the pIC50 with BaF3 PIM1 cells was 5.80.
Consider `FC1CCNCC1c1cccc(-n2ncc3cnc(-c4cnn(CC(F)(F)F)c4)cc32)n1` (stereo not drawn) [Compound 306, 1-(6-(4-fluoropiperidin-3-yl)pyridin-2-yl)-6-(1-(2,2,2-trifluoroethyl)-1H-pyrazol-4-yl)-1H-pyrazolo[4,3-c]pyridine], for which the pEC50 in experiment [1] (MM1.S, 72 h) was 5.77. Further, at PIM3, the negative logarithm of the Ki (pKi) is 9.90.

The term pKi denotes the negative decadic logarithm of the Ki, by convention in mol/L. The term pEC50 denotes the negative decadic logarithm of the EC50, by convention in mol/L. As a reminder, the pIC50 is the IC50 on a negative log10 scale, so that one unit is a factor of ten.
